Results from PubChem BioAssay AID248 (DTP/NCI, 2004).
Where “and” joins values, the source holds several entries; their conditions need not be identical. Equal values may be shown once. Toxic doses and inconclusive results are not listed. Rule as the data show it: active = T/C of 150% or more; inactive = T/C below 125%.

Test system: L1210 leukemia ip in BDF1 mice, survival T/C
Experiment: NCI In Vivo Anticancer Drug Screen. Data for tumor model L1210 Leukemia (intraperitoneal) in B6D2F1 (BDF1) mice
Conditions: endpoint: mean survival time, higher = longer survival
Procedure, shortened: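 Transplantable tumor model; survival measured in treated vs vehicle control mice. Value = treated/control.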

[1] = dose: 100.0 mg/kg/injection, schedule: Q01DX001 (ip), vehicle: carboxymethylcellulose (CMC)
[2] = dose: 200.0 mg/kg/injection, schedule: Q01DX001 (ip), vehicle: carboxymethylcellulose (CMC)
[3] = dose: 400.0 mg/kg/injection, schedule: Q01DX001 (ip), vehicle: carboxymethylcellulose (CMC)
[4] = dose: 50.0 mg/kg/injection, schedule: Q01DX001 (ip), vehicle: saline
[5] = dose: 100.0 mg/kg/injection, schedule: Q01DX001 (ip), vehicle: saline
[6] = dose: 200.0 mg/kg/injection, schedule: Q01DX001 (ip), vehicle: saline
[7] = dose: 400.0 mg/kg/injection, schedule: Q01DX001 (ip), vehicle: saline
[8] = dose: 100.0 mg/kg/injection, schedule: Q01DX009 (ip), vehicle: saline
[9] = dose: 100.0 mg/kg/injection, schedule: Q04DX003 (ip), vehicle: saline
[10] = dose: 200.0 mg/kg/injection, schedule: Q01DX009 (ip), vehicle: saline
[11] = dose: 200.0 mg/kg/injection, schedule: Q04DX003 (ip), vehicle: saline
[12] = dose: 100.0 mg/kg/injection, schedule: Q04DX002 (ip), vehicle: Klucel (hydroxypropylcellulose) (HPC)
[13] = dose: 200.0 mg/kg/injection, schedule: Q04DX002 (ip), vehicle: Klucel (hydroxypropylcellulose) (HPC)
[14] = dose: 400.0 mg/kg/injection, schedule: Q04DX002 (ip), vehicle: Klucel (hydroxypropylcellulose) (HPC)
[15] = dose: 100.0 mg/kg/injection, schedule: Q01DX009 (ip), vehicle: Klucel (hydroxypropylcellulose) (HPC)
[16] = dose: 100.0 mg/kg/injection, schedule: Q04DX003 (ip), vehicle: Klucel (hydroxypropylcellulose) (HPC)
[17] = dose: 200.0 mg/kg/injection, schedule: Q01DX009 (ip), vehicle: Klucel (hydroxypropylcellulose) (HPC)
[18] = dose: 200.0 mg/kg/injection, schedule: Q04DX003 (ip), vehicle: Klucel (hydroxypropylcellulose) (HPC)
[19] = dose: 400.0 mg/kg/injection, schedule: Q01DX009 (ip), vehicle: Klucel (hydroxypropylcellulose) (HPC)
[20] = dose: 400.0 mg/kg/injection, schedule: Q04DX003 (ip), vehicle: Klucel (hydroxypropylcellulose) (HPC)

Measured: T/C

CC(=O)C(CCC#N)C(C)=O.CC(=O)C(CCC#N)C(C)=O.[Cu]
inactive: dose: 6.25 mg/kg/injection, schedule: Q01DX009 (ip), vehicle: Klucel (hydroxypropylcellulose) (HPC) 95 % of control | dose: 12.5 mg/kg/injection, schedule: Q01DX009 (ip), vehicle: Klucel (hydroxypropylcellulose) (HPC) 98 % of control | dose: 12.5 mg/kg/injection, schedule: Q04DX003 (ip), vehicle: Klucel (hydroxypropylcellulose) (HPC) 90 % of control | dose: 25.0 mg/kg/injection, schedule: Q01DX009 (ip), vehicle: Klucel (hydroxypropylcellulose) (HPC) 87 % of control | dose: 25.0 mg/kg/injection, schedule: Q04DX003 (ip), vehicle: Klucel (hydroxypropylcellulose) (HPC) 91 % of control

CC(=O)NC(C)(CCOCc1ccccc1)C(=O)O (stereo unspecified)
inactive: dose: 50.0 mg/kg/injection, schedule: Q01DX001 (ip), vehicle: carboxymethylcellulose (CMC) 94 % of control | [1] 100 % of control | [2] 110 % of control | [3] 96 % of control

CC(C)(C)Nc1ccc(C#N)cc1
inactive: dose: 12.5 mg/kg/injection, schedule: Q04DX002 (ip), vehicle: Klucel (hydroxypropylcellulose) (HPC) 97 % of control | dose: 25.0 mg/kg/injection, schedule: Q04DX002 (ip), vehicle: Klucel (hydroxypropylcellulose) (HPC) 94 % of control | dose: 50.0 mg/kg/injection, schedule: Q04DX002 (ip), vehicle: Klucel (hydroxypropylcellulose) (HPC) 87 % of control

CNC(=O)NC(C)(C)CCCCC(C)(C)NC(=O)NC
inactive: [4] 104 % of control | [5] 102 % of control | [6] 93 % of control | [7] 96 % of control

O=C1NCCc2c1[nH]c1ccccc21
inactive: dose: 50.0 mg/kg/injection, schedule: Q01DX009 (ip), vehicle: saline 90 % of control | [8] 91 % of control | [9] 101 % of control | [10] 86 % of control | [11] 93 % of control

O=S(=O)(F)/C=C\c1ccccc1
inactive: dose: 25.0 mg/kg/injection, schedule: Q01DX009 (ip), vehicle: acetone 92 % of control | dose: 100.0 mg/kg/injection, schedule: Q01DX001 (ip), vehicle: acetone 95 % of control | dose: 200.0 mg/kg/injection, schedule: Q01DX001 (ip), vehicle: acetone 104 % of control

C[n+]1ccsn1
inactive: [1] 95 % of control | [2] 93 % of control | [3] 95 % of control

Cc1cc(OC(=O)Nc2cccc3ccccc23)ccc1Cl
inactive: dose: 100.0 mg/kg/injection, schedule: Q01DX009 (ip), vehicle: carboxymethylcellulose (CMC) 97 % of control and 101 % of control | [12] 105 % of control | dose: 100.0 mg/kg/injection, schedule: Q04DX002 (ip), vehicle: carboxymethylcellulose (CMC) 93 % of control and 91 % of control | dose: 100.0 mg/kg/injection, schedule: Q04DX003 (ip), vehicle: carboxymethylcellulose (CMC) 103 % of control | dose: 200.0 mg/kg/injection, schedule: Q01DX009 (ip), vehicle: carboxymethylcellulose (CMC) 98 % of control and 91 % of control | [13] 97 % of control | dose: 200.0 mg/kg/injection, schedule: Q04DX002 (ip), vehicle: carboxymethylcellulose (CMC) 97 % of control and 98 % of control | dose: 200.0 mg/kg/injection, schedule: Q04DX003 (ip), vehicle: carboxymethylcellulose (CMC) 94 % of control | dose: 400.0 mg/kg/injection, schedule: Q01DX009 (ip), vehicle: carboxymethylcellulose (CMC) 94 % of control and 98 % of control | [14] 109 % of control | dose: 400.0 mg/kg/injection, schedule: Q04DX002 (ip), vehicle: carboxymethylcellulose (CMC) 95 % of control | dose: 400.0 mg/kg/injection, schedule: Q04DX003 (ip), vehicle: carboxymethylcellulose (CMC) 90 % of control

CNC(=O)C(C)(C)c1ccccc1
inactive: [15] 97 % of control | [16] 96 % of control | [17] 95 % of control | [18] 95 % of control | [19] 97 % of control | [20] 95 % of control

Cc1ccc(S(=O)(=O)N2CCCC(O)c3ccccc32)cc1 (stereo unspecified)
inactive: [1] 108 % of control | [2] 106 % of control | [3] 116 % of control

CC(=O)Nc1c(Cl)c(Cl)c2c(c1Cl)C(O)c1cc(Cl)ccc1-2 (stereo unspecified)
inactive: [1] 103 % of control | [2] 97 % of control | [3] 114 % of control

CCOC(=O)C1CN(c2ccccc2)C(=O)C1=O (stereo unspecified)
inactive: [4] 104 % of control | [5] 98 % of control | [6] 96 % of control | [7] 98 % of control

O=C(O)COc1ccc(Cl)cc1Cl
inactive: [8] 100 % of control | [10] 100 % of control

COC(=O)c1cc(NC(=O)Nc2ccc(F)c(Cl)c2)cc(C(=O)OC)c1
inactive: [8] 98 % of control | [10] 98 % of control | dose: 400.0 mg/kg/injection, schedule: Q01DX009 (ip), vehicle: saline 102 % of control

O=[N+]([O-])CC(Nc1ccc(Br)cc1)c1ccccc1 (stereo unspecified)
inactive: dose: 67.0 mg/kg/injection, schedule: Q01DX009 (ip), vehicle: saline with Tween-80 95 % of control | dose: 100.0 mg/kg/injection, schedule: Q01DX009 (ip), vehicle: saline with Tween-80 97 % of control | dose: 150.0 mg/kg/injection, schedule: Q01DX009 (ip), vehicle: saline with Tween-80 100 % of control | dose: 200.0 mg/kg/injection, schedule: Q01DX009 (ip), vehicle: saline with Tween-80 91 % of control | dose: 400.0 mg/kg/injection, schedule: Q01DX009 (ip), vehicle: saline with Tween-80 86 % of control

O=C(O)C1CCC[N-]C1.O=C(O)C1CCC[N-]C1.[Cl][Pt+2][Cl] (stereo unspecified)
inactive: dose: 5.0 mg/kg/injection, schedule: Q01DX009 (ip), vehicle: saline with Tween-80 95 % of control | dose: 10.0 mg/kg/injection, schedule: Q01DX009 (ip), vehicle: saline with Tween-80 103 % of control | dose: 20.0 mg/kg/injection, schedule: Q01DX009 (ip), vehicle: saline with Tween-80 106 % of control

CN(C(N)=O)C1CCCC1
inactive: [9] 96 % of control | [11] 91 % of control | dose: 400.0 mg/kg/injection, schedule: Q04DX003 (ip), vehicle: saline 96 % of control

COC1CCC=CO1 (stereo unspecified)
inactive: dose: 13.3 mg/kg/injection, schedule: Q01DX Z (ip), vehicle: saline 93 % of control | dose: 20.0 mg/kg/injection, schedule: Q01DX Z (ip), vehicle: saline 105 % of control | dose: 30.0 mg/kg/injection, schedule: Q01DX Z (ip), vehicle: saline 109 % of control

Cc1ccccc1Sc1ccccc1[N+](=O)[O-]
inactive: [16] 95 % of control | [18] 106 % of control | [20] 103 % of control

CCCCCCCCCCCCNC(C)=O
inactive: dose: 100.0 mg/kg/injection, schedule: Q01DX005 (ip), vehicle: Klucel (hydroxypropylcellulose) (HPC) 97 % of control | [15] 105 % of control | [12] 98 % of control | dose: 100.0 mg/kg/injection, schedule: Q04DX003 (ip), vehicle: saline with Tween-80 97 % of control | dose: 200.0 mg/kg/injection, schedule: Q01DX005 (ip), vehicle: Klucel (hydroxypropylcellulose) (HPC) 94 % of control | [17] 99 % of control | [13] 91 % of control | dose: 200.0 mg/kg/injection, schedule: Q04DX003 (ip), vehicle: saline with Tween-80 98 % of control | dose: 400.0 mg/kg/injection, schedule: Q01DX005 (ip), vehicle: Klucel (hydroxypropylcellulose) (HPC) 102 % of control | [14] 106 % of control | dose: 400.0 mg/kg/injection, schedule: Q04DX003 (ip), vehicle: saline with Tween-80 90 % of control

N#CCc1ccc2c(c1)Sc1ccccc1O2
inactive: [15] 94 % of control | [17] 100 % of control | [19] 93 % of control
